Measurements from patent publication US20230190697A1, “METHODS FOR TREATING VIRAL INFECTIONS WITH NAFAMOSTAT” (priority 2020, published 2023).
Where “and” joins values, the source holds several entries; their conditions need not be identical. Equal values may be shown once.

What was measured:
[1] = test system: SD rats; experiment: Single dose oral tolerability in SD rats (dose range-finding); type: in vivo
From the text: Oral Tolerability in Rats: The single dose tolerability to oral nafamostat was studied in SD rats in a non-GLP pilot dose range-finding study. […] All other animals survived to 7 days and had no abnormalities at necropsy.

[2] = test system: SD rats; experiment: Pilot repeat-dose oral study in male SD rats (5 days); type: in vivo; conditions: 1000 mg/kg/day PO for 5 days
Description: A pilot, non-GLP repeat-dose study was performed in which nafamostat mesylate (500 or 1000 mg/kg/day PO) was administered to 6 male SD rats per group for 5 days. […] One animal had petechiae on the lower third of the colon. […] Death in 2 of the animals followed seizure activity at about 1 h post-dose.

[3] = target: hERG K+ channel (Homo sapiens, UniProt Q12809); experiment: cell-based; conditions: human, 50 µM
Description: Effects of nafamostat in an hERG assay: In an in vitro non-GLP screening study, effects of nafamostat on the hERG K^+ channel currents were evaluated in voltage-clamped human embryonic kidney cells at room temperature. […] A full ICH-Compliant hERG study and in vivo cardiovascular safety pharmacology study is be performed as part of the IND-enabling program.

[4] = Pharmacokinetics of oral nafamostat mesylate solution in healthy male and female subjects; type: in vivo, human; conditions: human, oral, 200 mg dose level, individual subjects
Description: Part 1: Single Ascending Dose Study. Male and female subjects aged 18 - 70 were administered a single dose of 50 mg nafamostat mesylate on day 1, 100 mg nafamostat mesylate on day 3 or 4, and 200 mg nafamostat mesylate on day 5, 6, or 7. Nafamostat mesylate was administered in the form of an oral solution. […]
Part 2: Multiple Ascending Dose Study. Subjects were divided into 2 cohorts. Cohort 1 received an oral solution of 100 mg/mL nafamostat mesylate twice a day for 5 days with pharmacokinetic evaluations on each day. […] Safety evaluations continued for 48 hours after the last dose. After review and evidence of safety, Cohort 2 received an oral solution of 200 mg/mL nafamostat mesylate twice a day for 5 days with pharmacokinetic evaluations on each day. […] Safety evaluations continued for 48 hours after the last dose.
Part 3: Single Fixed Dose Administered Twice Daily for 5 Days. Six subjects, different than the subjects from Parts 1 and 2, received an oral solution of 200 mg/mL nafamostat mesylate twice a day for 5 days. Blood samples were obtained at pre-dose (0 hr.) and at 0.5, 1, 2, 3, 4, 6, and 8 hours after the first dose on Day 1 and again after the first dose on Day 5. […]
Oral solutions received by each subject were prepared by dissolving nafamostat mesylate in about 100 mL of EMETROL®/water and provided at a volume to deliver the indicated dosage. There was no placebo formulation.
Nafamostat pharmacokinetics was evaluated at the 200 mg dose levels.

Chain of hERG K+ channel (Q12809 whole entry): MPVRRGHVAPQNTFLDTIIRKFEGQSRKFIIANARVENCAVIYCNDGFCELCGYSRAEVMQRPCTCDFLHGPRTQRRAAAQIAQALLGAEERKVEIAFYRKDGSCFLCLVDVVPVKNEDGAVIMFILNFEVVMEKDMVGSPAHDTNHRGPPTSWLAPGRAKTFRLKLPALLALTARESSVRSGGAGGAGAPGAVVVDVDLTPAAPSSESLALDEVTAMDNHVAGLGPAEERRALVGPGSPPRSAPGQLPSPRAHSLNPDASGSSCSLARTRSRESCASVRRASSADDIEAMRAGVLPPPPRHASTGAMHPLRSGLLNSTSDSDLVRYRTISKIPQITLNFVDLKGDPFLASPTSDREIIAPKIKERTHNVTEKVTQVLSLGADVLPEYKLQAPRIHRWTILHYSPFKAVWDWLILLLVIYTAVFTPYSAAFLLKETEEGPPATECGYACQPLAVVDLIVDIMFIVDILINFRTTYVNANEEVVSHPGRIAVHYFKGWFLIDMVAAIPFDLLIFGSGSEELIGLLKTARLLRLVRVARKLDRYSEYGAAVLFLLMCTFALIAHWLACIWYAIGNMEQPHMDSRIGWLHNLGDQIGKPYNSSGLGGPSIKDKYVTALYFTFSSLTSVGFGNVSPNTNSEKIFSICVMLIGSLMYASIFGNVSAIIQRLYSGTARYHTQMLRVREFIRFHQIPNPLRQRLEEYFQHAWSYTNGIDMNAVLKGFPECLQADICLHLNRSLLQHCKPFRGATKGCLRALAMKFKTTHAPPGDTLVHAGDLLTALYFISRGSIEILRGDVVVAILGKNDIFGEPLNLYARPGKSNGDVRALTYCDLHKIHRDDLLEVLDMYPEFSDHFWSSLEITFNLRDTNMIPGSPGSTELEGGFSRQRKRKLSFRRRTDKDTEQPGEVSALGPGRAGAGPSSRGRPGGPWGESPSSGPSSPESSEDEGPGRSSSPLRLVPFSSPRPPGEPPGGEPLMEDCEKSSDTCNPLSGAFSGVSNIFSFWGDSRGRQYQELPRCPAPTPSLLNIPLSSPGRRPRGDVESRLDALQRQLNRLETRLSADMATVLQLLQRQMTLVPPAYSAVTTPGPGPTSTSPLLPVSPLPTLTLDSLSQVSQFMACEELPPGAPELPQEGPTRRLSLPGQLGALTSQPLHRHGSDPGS

## CS(=O)(=O)O.CS(=O)(=O)O.N=C(N)Nc1ccc(C(=O)Oc2ccc3cc(C(=N)N)ccc3c2)cc1 [nafamostat mesylate, 6-amidino-2-naphthyl p-guanidinobenzoate dimethanesulfonate]
[1]; 1000 mg/kg female dose group, stomach perforations at necropsy indicate dosing misadministration
  mortality: 2 of 3 animals died at 48 hours
[1]; both, SD, rat, in vivo, po, 7 days
  single dose oral tolerability: ≥ 1000 mg/kg
[2]
  necropsy finding in animals that died: fluid filled stomach at necropsy
[2]; 6 male SD rats
  mortality: Four of 6 animals receiving 1000 mg/kg/day died by day 5
[3]
  inhibition of hERG potassium currents: approximately 24%
[4]; both sexes, blood, Day 1, 8 h post-dose
  concentration at 8 h: < 0.1 ng/mL
[4]; both sexes, blood, Day 1, 12 h post-dose
  concentration at 12 h: < 0.1 ng/mL
[4]; Day 1, 0 h post-dose
  NM: < 0.100 ng/mL
[4]; Day 1, 0.5 h post-dose
  NM: < 0.100 ng/mL
[4]; Day 1, 1 h post-dose, listed as NM, dimethanesulfonate
  NM: < 0.100 ng/mL (4×) and 0.125 ng/mL
[4]; Day 1, 2 h post-dose
  NM: < 0.100 ng/mL
[4]; Day 1, 3 h post-dose
  NM: < 0.100 ng/mL
[4]; Day 1, 4 h post-dose
  NM: < 0.100 ng/mL
[4]; Day 1, 6 h post-dose
  NM: < 0.100 ng/mL
[4]; Day 1, 8 h post-dose
  NM: < 0.100 ng/mL
[4]; Day 1, 12 h post-dose
  NM: < 0.100 ng/mL
[4]; Day 2, 0 h post-dose
  NM: < 0.100 ng/mL
[4]; Day 2, 0.5 h post-dose
  NM: < 0.100 ng/mL
[4]; Day 2, 1 h post-dose
  NM: < 0.100 ng/mL
[4]; Day 2, 2 h post-dose
  NM: < 0.100 ng/mL
[4]; Day 2, 3 h post-dose
  NM: < 0.100 ng/mL
[4]; Day 2, 4 h post-dose
  NM: < 0.100 ng/mL
[4]; Day 2, 6 h post-dose
  NM: < 0.100 ng/mL
[4]; Day 2, 8 h post-dose
  NM: < 0.100 ng/mL
[4]; Day 2, 12 h post-dose
  NM: < 0.100 ng/mL
[4]; Day 2, 16 h post-dose
  NM: < 0.100 ng/mL
[4]; Day 3, 0 h post-dose
  NM: < 0.100 ng/mL
[4]; Day 3, 4 h post-dose, listed as NM, dimethanesulfonate
  NM: < 0.100 ng/mL (2×) and 0.101 ng/mL
[4]; Day 3, 8 h post-dose
  NM: < 0.100 ng/mL
[4]; Day 3, 12 h post-dose
  NM: < 0.100 ng/mL
[4]; Day 3, 16 h post-dose
  NM: < 0.100 ng/mL
[4]; Day 4, 0 h post-dose, listed as NM, dimethanesulfonate
  NM: < 0.100 ng/mL
[4]; Day 4, 4 h post-dose
  NM: < 0.100 ng/mL
